One data set addresses human mGluR5 receptor (Homo sapiens (Human), UniProt P41594). As to the kind of experiment: Radioligand binding assay at cloned human mGluR5 receptor subtype ([3H]MPEP). As to conditions: 4 nM [3H]MPEP, CHO T-REx h-mGluR5 cells, 60 min at 25° C.; read-out: mGlu5 Ki. From the text: (§1) Cell lines stably transfected were generated using inducible expression vectors encoding human mGlu5 receptor using the Tetracycline-Regulated Expression system (T-REx™ system, Invitrogen, Life Technologies). Human mGluR5 open reading frame (ORF), comprehensive of the stop codon, were cloned into the pcDNA4/TO/myc-His™ A vector, carrying the TetO2. The insertion site was HindIII-PstI for mGluR5 receptors. The obtained constructs were then transfected into the T-REx CHO™ cell line using the FuGENE protocol (Roche); the CHO T-REx™ cell line stably expresses the Tet repressor (from the pcDNA6/TR plasmid) under the selection of blasticidin, 10 μg/ml. Stable clones were obtained selecting with zeocin 1 mg/ml and maintaining in ULTRA CHO medium (LONZA) supplemented with dialyzed FBS, zeocin, blasticidine, at 37° C., in an atmosphere of 5% CO2. The expression of h-mGluR5 receptors was de-repressed with 1 μg/ml tetracycline for 18 h before binding experimentation, while the expression of h-mGluR5 receptors was derepressed respectively with 3 ng/ml and 10 ng/ml tetracycline for 18 h before calcium fluorescence experimentation.
Radioligand Binding Assay at Cloned Human mGluR5 Receptor Subtype
Affinity at transmembrane glutamate metabotropic cloned human mGluR5 receptor was evaluated according to the methods of Anderson (Anderson et al., J Pharmacol. Exp. Ther., (2002), Vol. 303(3), pp. 1044-51), with some modifications. Human cloned mGluR5 was obtained by re-suspending CHO T-REx h-mGluR5 cells (50 μg/well) in 20 mM HEPES, 2 mM MgCl2, 2 mM CaCl2, pH 7.4, that then were incubated in a final volume of 1 ml for 60 min at 25° C. with 4 nM [^3H]MPEP in the absence or presence of competing drugs. Non-specific binding was determined in the presence of 10 μM MPEP. The incubation was stopped by addition of cold Tris buffer pH 7.4 and rapid filtration through 0.2% polyethyleneimine pretreated Filtermat 1204-401 (Perkin Elmer) filters. The filters were then washed with cold buffer and the radioactivity retained on the filters was counted by liquid scintillation spectrometry (Betaplate 1204 BS-Wallac).
The inhibition curves of the tested compounds at cloned mGluR5 subtypes were determined by nonlinear regression analysis using software Prism 4.0 (Graphpad, San Diego, Calif.). The IC50 values and pseudo-Hill slope coefficients were estimated by the program. The values for the inhibition constant, Ki, were calculated according to the equation Ki=IC50/(1+[L]/Kd), where [L] is the concentration of radioligand and Kd is the equilibrium dissociation constant of the radioligand-receptor complex (Cheng et al., Biochem. Pharmacol. (1973), Vol. 22, pp. 3099-3108).

The target of data set [1] is T1, human mGlu5 receptor (Homo sapiens (Human), UniProt P41594). As to the kind of experiment: Fold shift of agonist curve determination. As to conditions: ratio of EC50 agonist (quisqualate or glutamate) curves in presence and in absence of test compound; compound at 1 μM. The class given is cell-based.
Description: as §1
(§2) Cells were seeded into black-walled, clear-bottom, 96-well plates at a density of 80000 cell/well, in RPMI (without Phenol Red, without L-glutamine; Gibco LifeTechnologies, CA) supplemented with 10% dialyzed FBS. Following 18-h incubation with tetracycline, the cells were loaded with […] Ca^2+-sensitive fluorescent dye Fluo-4/AM (Molecular Probes) in Hanks' balanced saline solution (HBSS, Gibco LifeTechnologies, CA) with […] Hepes (Sigma) and 2.5 mM probenecid (Sigma), for 1 h at 37° C. The cells were washed three times with HBSS to remove extracellular dye. Fluorescence signals were measured by using the fluorescence microplate reader Flexstation III (Molecular Devices) at sampling intervals of 1.5 s for 60 s.
The PAM potency was evaluated by performing an agonist concentration response curve in the presence of the compounds. The compounds at fixed concentration (0.01 or 0.1 or 1 μM) were applied 10 minutes before the incubation of the agonist (quisqualate or glutamate) dose-response curve. The fold shift was determined as ratio of EC50 agonist curves in presence and in absence of test compound. For instance, and in particular compound 34 has a fold shift of 2.7.

A further data set concerns C57/BL/6J mice. As to the kind of experiment: Novel object recognition test in mice. The format is in vivo, mouse. The note with it: intraperitoneal route, 30 min before training, memory assessed 24 h after training. As to the method: Novel object memory was assessed during three sessions. This task relies on the innate tendency of a mouse to explore unfamiliar objects vs. familiar objects. Testing was performed in an open-field arena. 24 h prior to training, C57/BL/6J 5-week male mice were habituated to the arena for 10 min (session 1).
During training, mice were administered by intraperitoneal route with the vehicle or the tested compound and after 30 min they were allowed for 5 min to explore two identical objects (A+A, session 2). Long-term object memory was assessed 24 h after the completion of training during which mice were given 5 min to explore the familiar (A) or the novel (B) object (A+B, session 3). The duration of exploration (defined as the mouse's snout or forelimbs physically touching or approaching within 1 cm of an object) of familiar and novel object was measured. The amount of time spent exploring the novel object over the total time exploring both novel and familiar object in each session was used to measure object memory.
For instance, and in particular the activity of compound of Example 34, expressed as MED (Minimal Effective Dose that induces statistically significant difference of exploration of the two objects) is of 10 mg/kg. Statistical analysis of exploration time values, was performed by using a paired Student's test, which was calculated using GraphPad Prisma 4.

The target of data set [2] is T1, human mGlu5 receptor. As to the kind of experiment: Calcium fluorescence measurements, potentiation of mGlu5 activation (positive allosteric modulator activity). The class given is cell-based. As to conditions: EC20 of the agonist (quisqualate or glutamate), compounds applied 10 minutes before agonist.
Description: as §1, §2
The antagonist potency was determined using the EC80 of the quisqualate used as agonist and the potentiation of mGlu5 activation was determined using the EC20 of the agonist (quisqualate or glutamate). The compounds were applied 10 minutes before the application of the agonist.
The negative allosteric modulator activity (expressed as IC50) and the positive allosteric modulator activity (expressed as EC50) of the compounds of the invention for the mGlu5 receptors is between 0.1 and 1000 nM.

Molecules are shown by their SMILES.

As usually defined, the Ki is a dissociation constant, usually derived from enzyme kinetics or from competition with a known ligand. For orientation: EC50 means the concentration needed to bring the measured effect to its halfway point.

T1 sequence (P41594 21-1212): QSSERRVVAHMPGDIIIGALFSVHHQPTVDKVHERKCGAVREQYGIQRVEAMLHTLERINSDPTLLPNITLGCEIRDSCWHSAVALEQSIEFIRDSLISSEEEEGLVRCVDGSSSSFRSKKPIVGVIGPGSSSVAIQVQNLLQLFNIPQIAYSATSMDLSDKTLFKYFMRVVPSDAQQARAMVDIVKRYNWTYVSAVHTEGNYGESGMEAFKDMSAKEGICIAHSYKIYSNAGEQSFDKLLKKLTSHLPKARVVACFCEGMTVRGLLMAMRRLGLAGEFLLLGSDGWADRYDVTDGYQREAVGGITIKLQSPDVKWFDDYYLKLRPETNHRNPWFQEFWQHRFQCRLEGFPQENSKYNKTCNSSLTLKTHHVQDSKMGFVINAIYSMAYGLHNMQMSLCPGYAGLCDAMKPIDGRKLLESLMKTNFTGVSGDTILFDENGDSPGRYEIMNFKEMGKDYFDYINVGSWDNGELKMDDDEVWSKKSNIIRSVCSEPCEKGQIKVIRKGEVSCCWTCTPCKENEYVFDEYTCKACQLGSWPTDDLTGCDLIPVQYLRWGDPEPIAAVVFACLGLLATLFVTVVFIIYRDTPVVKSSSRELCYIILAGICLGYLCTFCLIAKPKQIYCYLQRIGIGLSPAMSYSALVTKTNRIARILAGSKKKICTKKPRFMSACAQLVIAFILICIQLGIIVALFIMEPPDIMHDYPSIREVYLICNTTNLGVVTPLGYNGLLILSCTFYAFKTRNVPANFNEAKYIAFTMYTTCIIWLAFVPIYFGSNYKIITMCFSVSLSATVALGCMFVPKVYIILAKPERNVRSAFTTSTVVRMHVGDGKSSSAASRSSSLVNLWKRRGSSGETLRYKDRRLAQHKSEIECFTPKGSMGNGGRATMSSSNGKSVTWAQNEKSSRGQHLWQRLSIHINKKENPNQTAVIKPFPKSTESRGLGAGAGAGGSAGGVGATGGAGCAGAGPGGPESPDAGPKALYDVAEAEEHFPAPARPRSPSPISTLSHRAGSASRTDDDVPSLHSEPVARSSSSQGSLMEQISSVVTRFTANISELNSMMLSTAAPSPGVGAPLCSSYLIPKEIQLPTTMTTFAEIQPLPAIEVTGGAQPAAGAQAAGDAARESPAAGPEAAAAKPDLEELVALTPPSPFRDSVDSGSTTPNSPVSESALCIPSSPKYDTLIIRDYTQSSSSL
Sequence of human mGluR5 receptor (P41594 21-1212): as above

As to `CC1(C)CN(C(=O)c2cccc(Cl)c2)CC/C1=C\C#Cc1cccc(Cl)c1` [Example 34, (3-chlorophenyl){(4E)-4-[3-(3-chlorophenyl)prop-2-yn-1-ylidene]-3,3-dimethylpiperidin-1-yl}methanone], the inhibitory constant (Ki) on human mGluR5 receptor was 0.99 nM. Moreover, the “mGlu5 Fold Shift @1 μM” value at human mGlu5 receptor [1] came to 2.7. Moreover, the “MED (Minimal Effective Dose that induces statistically significant difference of exploration of the two objects)” value in the data set with C57/BL/6J mice turned out to be 10 mg/kg. On human mGlu5 receptor [2], the half-maximal effective concentration (EC50) was 107 nM.

These data come from patent US11440922B2, “Heterocyclylmethylidene derivatives and their use as modulators of mGluR5 receptors” (Recordati Industria Chimica e Farmaceutica S.p.A., priority 2017, dated 2022).
